Laboratory results as given in PMC3608651, “A Broad Profile of Co-Dominant Epitopes Shapes the Peripheral Mycobacterium tuberculosis Specific CD8+ T-Cell Immune Response in South African Patients with Active Tuberculosis” (PLoS ONE, 2013).
Read-outs that look alike come from different tables or passages of the source.

Columns and labels:
Assay type in all cases: binding
HLA-A*68:01 [1] = molecular target: T1, HLA-A*68:01 (Homo sapiens, UniProt P04439, A269V/D185E/E176V/E277Q/E87N/F33Y/G231S/I121M/I166T/I218V/L180W/L300P/L318F/N151K/P208A/P217A/Q86R/R169H/T345S); conditions: percent relative the binding of positive control peptide […]; duplicated experiments; positive binder >40%
HLA-B*58:01 [2] = molecular target: T2, HLA-B*58:01 (Homo sapiens, UniProt P01889, A329T/C349S/D201E/D98Y/E176V/E187L/E204Q/E69T/G107R/I218V/I90N/K202T/L105A/L119I/N104I/N87E/Q89R/Q94S/R106L/R155S/R180L/R86G/S101N/S121R/S35A/S48A/T118I/V127L/V306I/V36M/Y140S/Y91M); conditions: percent relative the binding of positive control peptide […]; duplicated experiments; positive binder >40%
HLA-C*07:01 [3] = molecular target: T3, HLA-C*07:01 (Homo sapiens, UniProt P10321, K90N/S123Y); conditions: percent relative the binding of positive control peptide […]; duplicated experiments; positive binder >40%
HLA-C*07:01 [4] = molecular target: T3, HLA-C*07:01; test: affinity assay (ED50)
HLA-C*07:01 [5] = molecular target: T3, HLA-C*07:01; test: off-rate assay (t1/2); conditions: time points 0-8 h
HLA-A*02:01 [6] = molecular target: T4, HLA-A*02:01 (Homo sapiens, UniProt P04439, D140Y/D185E/D98H/E176V/E277Q/G131W/G231S/I119V/I121R/I166T/I218V/L300P/L318F/N151K/N90K/P208A/P217A/Q86G/Q94H/R138H/R169H/T345S)
HLA-A*24:02 [7] = molecular target: T5, HLA-A*24:02 (Homo sapiens, UniProt P04439, D101N/D140Y/D185E/E176V/E190D/F33S/G103R/G107R/I119L/I121M/I306V/K335N/L105A/L180Q/L300P/N151K/N90K/Q86E/Q94H/R106L/R138H/R89G/T104I/T345S/V100E/W191G/Y123F); conditions: percent relative the binding of positive control peptide […]; duplicated experiments; positive binder >40%
HLA-A*24:02 [8] = molecular target: T5, HLA-A*24:02
HLA-A*24:02 [9] = molecular target: T5, HLA-A*24:02; conditions: time points 0-8 h
HLA-A*30:01 = HLA-A*30:01 (Homo sapiens, UniProt P04439, D140H/D185E/E176W/F33S/G80R/H175R/K168Q/R138E/R41S); conditions: percent relative the binding of positive control peptide […]; duplicated experiments; positive binder >40%
HLA-A*30:02 [10] = molecular target: T6, HLA-A*30:02 (Homo sapiens, UniProt P04439, D101N/D140H/D185E/E176R/F33S/G80R/H175R/K168Q/Q94H/R138E/R41S/V100E); conditions: percent relative the binding of positive control peptide […]; duplicated experiments; positive binder >40%
HLA-A*30:02 [11] = molecular target: T6, HLA-A*30:02
HLA-A*30:02 [12] = molecular target: T6, HLA-A*30:02; conditions: time points 0-8 h
HLA-B*07:02 = HLA-B*07:02 (Homo sapiens, UniProt P01889); conditions: percent relative the binding of positive control peptide […]; duplicated experiments; positive binder >40%
HLA-B*58:01 [13] = molecular target: T2, HLA-B*58:01
HLA-B*58:01 [14] = molecular target: T2, HLA-B*58:01; conditions: time points 0-8 h
HLA-A*02:01 [15] = molecular target: T4, HLA-A*02:01; conditions: […]; peptide quantity for 50% binding saturation
HLA-A*02:01 [16] = molecular target: T4, HLA-A*02:01; conditions: time points 0-8 h; time when 50% of peptide has dissociated
HLA-A*68:01 [17] = molecular target: T1, HLA-A*68:01
HLA-A*68:01 [18] = molecular target: T1, HLA-A*68:01; conditions: time points 0-8 h
[19] = percent relative the binding of positive control peptide […], plate-bound monomer 0.5 µg/ml, duplicated experiments, positive binder >40%

Substance	Bind A*68:01 (HLA-A*68:01 [1]) [%]	Bind B*58:01 (HLA-B*58:01 [2]) [%]	Bind C*07:01 (HLA-C*07:01 [3]) [%]	Aff C*07:01 (ED50) (HLA-C*07:01 [4]) [nM]	O-rate C*07:01 (t1/2) (HLA-C*07:01 [5]) [min]	Bind A*24:02 (HLA-A*24:02 [7]) [%]	Aff A*24:02 (ED50) (HLA-A*24:02 [8])	O-rate A*24:02 (t1/2) (HLA-A*24:02 [9]) [min]	Bind A*30:01 (HLA-A*30:01) [%]	Bind A*30:02 (HLA-A*30:02 [10]) [%]	Aff A*30:02 (ED50) (HLA-A*30:02 [11])	O-rate A*30:02 (t1/2) (HLA-A*30:02 [12]) [min]	Bind B*07:02 (HLA-B*07:02) [%]	Aff B*58:01 (ED50) (HLA-B*58:01 [13])	O-rate B*58:01 (t1/2) (HLA-B*58:01 [14]) [min]	Bind A*02:01 (HLA-A*02:01 [6]; [19]) [%]	Aff A*02:01 (ED50) (HLA-A*02:01 [15])	O-rate A*02:01 (t1/2) (HLA-A*02:01 [16]) [min]	also measured
AMEDLVRAY [Rv0288_61–69]	0	14	46	5000	6	–	–	–	–	–	–	–	–	–	–	–	–	–	–
SMAGSSAMI	0	95	0	–	–	52	2E -07 M	24	0	45	9e-08 M	78	14	2E -07 M	96	–	–	–	Bind A*02:01 (HLA-A*02:01 [6]): 81
QIMYNYPTM [Rv0288_3–11m1]	–	9	–	–	–	40	2e-06 M	30	12	23	–	–	5	–	–	51	3e-06 M	42	–
ANNTRLWVY	0	19	113	5	42	32	–	–	19	195	2e-08 M	114	9	–	–	5	–	–	–
KAGCQTYKW	25	193	31	–	–	140	7E -08 M	114	13	45	–	–	9	3E -08 M	480	22	–	–	–
QT YKWETFL	46	40	15	–	–	110	2e-08 M	120	0	41	2E -08 M	60	0	2E -08 M	90	60	3E -07 M	156	Aff A*68:01 (ED50) (HLA-A*68:01 [17]): 2E -07 M; O-rate A*68:01 (t1/2) (HLA-A*68:01 [18]): 42 min
YNYPAMLGH [Rv0288_6–14]	30	0	48	7000	18	–	–	–	–	–	–	–	–	–	–	–	–	–	–
VRAYHAMSS [Rv0288_66–74]	29	10	79	1000	12	–	–	–	–	–	–	–	–	–	–	–	–	–	–
IMYNYPTML [Rv0288_4–12m1]	–	37	5	–	–	43	8e-07 M	30	28	15	–	–	7	0.0003 M	–	88	4e-07 M	240	–
NNSPAVYLL	28	0	70	200	36	49	–	–	0	0	–	–	0	–	–	16	–	–	–
